Reference: US11230556B2 (Merck Sharp & Dohme Corp., priority 2016, dated 2022)

Target: T1, human M4 muscarinic acetylcholine receptor (Homo sapiens, UniProt P08173)
T1 construct: expressed in transfected cells; host or cells: CHO-K1
T1 sequence (P08173 1-479): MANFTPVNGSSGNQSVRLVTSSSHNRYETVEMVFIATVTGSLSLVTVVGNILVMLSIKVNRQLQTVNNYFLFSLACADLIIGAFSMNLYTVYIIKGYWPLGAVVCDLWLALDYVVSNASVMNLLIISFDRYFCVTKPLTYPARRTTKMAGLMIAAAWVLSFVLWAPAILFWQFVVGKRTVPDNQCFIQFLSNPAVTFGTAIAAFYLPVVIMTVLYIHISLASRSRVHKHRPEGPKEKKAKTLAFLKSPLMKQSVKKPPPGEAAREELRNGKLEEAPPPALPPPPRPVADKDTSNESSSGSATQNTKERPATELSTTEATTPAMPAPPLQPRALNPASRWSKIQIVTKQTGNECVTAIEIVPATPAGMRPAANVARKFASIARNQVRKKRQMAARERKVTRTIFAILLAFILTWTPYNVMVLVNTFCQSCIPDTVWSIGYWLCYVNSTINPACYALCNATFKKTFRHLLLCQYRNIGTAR
Test: human FLIPR-based M4 PAM assay (CHO-K1 cells with human M4 receptor and Gαqi5, calcium dye fluorescence, acetylcholine at 20% of maximum response)
Assay type: cell-based
Details: inflection point (IP) of 4 parameter logistic dose response curve, human M4 receptor + Gαqi5, FLIPR Tetra
Experimental: In a typical experiment the M4 muscarinic acetylcholine receptor modulating activity of the compounds of the present invention was determined in accordance with the following experimental method. CHO-K1 cells stably transfected with human M4 receptor and chimeric G-protein Gαqi5 (Coward P, et al., Analytical Biochemistry, 270:242-248 (1999)) are thawed from liquid N2 storage, resuspended in growth medium, plated in black, clear bottom 384 well plates, and incubated 16-20 hours at 37° C., 5% CO2. On the day of assay, growth medium is removed, the cells are washed 2 times with wash buffer, and cells are incubated in dye loading buffer at 37° C., 5% CO2 for ˜1 hour. Following dye loading the cell plates are placed in a FLIPR Tetra instrument and while monitoring dye fluorescence (excitation […]), 10 uL of test substance at increasing concentrations is added, and fluorescence values are recorded for 4 min. Next, 10 uL of acetylcholine is added (final concentration calculated so as to achieve 20% of the maximum acetycholine response), and the fluorescence reading is continued for 3.5 min. In some cases, a third addition of acetylcholine (final concentration calculated to achieve 70% of the maximal acetylcholine response) is performed. The resulting dose response curves are fit to a 4 parameter logistic equation and the final result is determined as the inflection point (IP) of the curve
CHO-K1 cells stably transfected with human M4 receptor and chimeric G-protein Gαqi5 are thawed from liquid N2 storage, resuspended in growth medium, plated in black, clear bottom 384 well plates, and incubated 16-20 hours at 37° C., 5% CO2.
On the day of assay, growth medium is removed, the cells are washed 2 times with wash buffer, and cells are incubated in dye loading buffer at 37° C., 5% CO2 for ˜1 h. Following dye loading the cell plates are placed in a FLIPR Tetra instrument and while monitoring dye fluorescence ([…]), 10 uL of test substance at increasing concentrations is added, and fluorescence values are recorded for 4 min. Next, 10 uL of acetylcholine is added (final concentration calculated so as to achieve 20% of the maximum acetycholine response), and the fluorescence reading is continued for 3.5 min. In some cases, a third addition of acetylcholine (final concentration calculated to achieve 70% of the maximal acetylcholine response) is performed.

Row | SMILES | EC50
1 | COc1ccc(OC2CCN(c3nc4c(cc3C)C(=O)OC4C)CC2)cn1 (racemic) [Example 29B, (R)-2-(4-((6-Methoxypyridin-3-yl)oxy)piperidin-1-yl)-3,7-dimethylfuro[3,4-b]pyridin-5(7H)-one and (S)-2-(4-((6-methoxypyridin-3-yl)oxy)piperidin-1-yl)-3,7-dimethylfuro[3,4-b]pyridin-5(7H)-one] | 54 nM
2 | COc1ccc(OC2CCN(c3nc4c(cc3C)C(O)CC4)CC2)cn1 (single isomer, unassigned) [Example 71A] | 3080 nM
3 | COc1ccc(OC2CCN(c3nc4c(cc3C)C(O)CC4)CC2)cn1 (single isomer, unassigned) [Example 71B] | 1050 nM
4 | Cc1cc2c(nc1N1CCC(Oc3ccc4c(c3)COC4)CC1)C1COCCN1C2=O (single isomer, unassigned) [Example 81A] | 29 nM
5 | Cc1cc2c(nc1N1CCC(Oc3ccc4c(c3)COC4)CC1)C1COCCN1C2=O (single isomer, unassigned) [Example 81B] | 163 nM
6 | Cc1cc2c(nc1N1CCC(Oc3ccc4c(c3)COC4)CC1)C1CNCCN1C2=O (single isomer, unassigned) [Example 83A] | 103 nM
7 | COc1ccc(OC2CCN(c3nc4c(cc3C)CNC4=O)CC2)cn1 [Example 1, (4-((6-Methoxypyridin-3-yl)oxy)piperidin-1-yl)-3-methyl-5H-pyrrolo[3,4-b]pyridin-7(6H)-one] | 193 nM
8 | Cc1cn2c(=O)[nH]nc2nc1N1CCC(Oc2ccc3c(c2)COC3)CC1 [Example 2, 7-(4-((1,3-Dihydro-2-benzofuran-5-yl)oxy)piperidin-1-yl)-6-methyl-[1,2,4]triazolo[4,3-a]pyrimidin-3(2H)-one] | 20 nM
9 | Cc1cn2c(=O)n(C)nc2nc1N1CCC(OCC2(C)CC2)CC1 [Example 3, 2,6-Dimethyl-7-(4-((1-methylcyclopropyl)methoxy)piperidin-1-yl)-[1,2,4]triazolo[4,3-a]pyrimidin-3(2H)-one] | 79 nM
10 | COc1ccc(OC2CCN(c3nc4n[nH]c(=O)n4cc3C)CC2)cn1 [Example 4] | 55 nM
11 | Cc1cn2c(=O)[nH]nc2nc1N1CC[C@@H](Oc2ccc3c(cnn3C)c2)[C@@H](F)C1 [Example 5, 7-((3S,4R)-3-fluoro-4-((1-methyl-1H-indazol-5-yl)oxy)piperidin-1-yl)-6-methyl-[1,2,4]triazolo[4,3-a]pyrimidin-3(2H)-one] | 62 nM
12 | Cc1cn2c(=O)[nH]nc2nc1N1CCC(Oc2ccc3c(c2)C(=O)N(C2CC2)C3)CC1 [Example 6, 7-(4-((2-cyclopropyl-3-oxoisoindolin-5-yl)oxy)piperidin-l-yl)-6-methyl-[1,2,4]triazolo[4,3-a]pyrimidin-3(2H)-one] | 168 nM
13 | Cc1cn2c(=O)[nH]nc2nc1N1CC[C@@H](Oc2ccc3c(cnn3C)c2)[C@H](F)C1 [Example 7, 7-((3R,4R)-3-fluoro-4-((1-methyl-1H-indazol-5-yl)oxy)piperidin-1-yl)-6-methyl-[1,2,4]triazolo[4,3-a]pyrimidin-3(2H)-one] | 138 nM
14 | Cc1cn2c(=O)[nH]nc2nc1N1CCC(OCC2CCCC2)CC1 [Example 8, 7-(4-(cyclopentylmethoxy)piperidin-1-yl)-6-methyl-[1,2,4]triazolo[4,3-a]pyrimidin-3(2H)-one] | 242 nM
15 | Cc1cn2c(=O)n(C)nc2nc1N1CCC(Oc2ccc3c(cnn3C)c2)CC1 [Example 9, 2,6-dimethyl-7-(4-((1-methyl-1H-indazol-5-yl)oxy)piperidin-1-yl)-[1,2,4]triazolo[4,3-a]pyrimidin-3(2H)-one] | 112 nM
16 | Cc1cn2c(=O)n(C)nc2nc1N1CC[C@@H](Oc2ccc3c(cnn3C)c2)[C@@H](F)C1 [Example 10, 7-((3S,4R)-3-fluoro-4-((1-methyl-1H-indazol-5-yl)oxy)piperidin-1-yl)-2,6-dimethyl-[1,2,4]triazolo[4,3-a]pyrimidin-3(2H)-one] | 81 nM

Row | SMILES | EC50
17 | COc1ccc(OC2CCN(c3nc4nn(C)c(=O)n4cc3C)CC2)cn1 [Example 11, 7-(4-((6-methoxypyridin-3-yl)oxy)piperidin-1-yl)-2,6-dimethyl-[1,2,4]triazolo[4,3-a]pyrimidin-3(2H)-one] | 87 nM
18 | Cc1cn2c(=O)n(C)nc2nc1N1CCC(OCC2CCCC2)CC1 [Example 12, 7-(4-(cyclopentylmethoxy)piperidin-1-yl)-2,6-dimethyl-[1,2,4]triazolo[4,3-a]pyrimidin-3(2H)-one] | 718 nM
19 | Cc1cn2c(=O)n(CCO)nc2nc1N1CCC(Oc2ccc3c(c2)COC3)CC1 [Example 13, 7-(4-((1,3-Dihydro-2-benzofuran-5-yl)oxy)piperidin-1-yl)-2-(2-hydroxyethyl)-6-methyl-[1,2,4]triazolo[4,3-a]pyrimidin-3(2H)-one] | 47 nM
20 | COc1ccc(OC2CCN(c3nc4nn(CCO)c(=O)n4cc3C)CC2)cn1 [Example 14, 2-(2-hydroxyethyl)-7-(4-((6-methoxypyridin-3-yl)oxy)piperidin-1-yl)-6-methyl-[1,2,4]triazolo[4,3-a]pyrimidin-3(2H)-one] | 69 nM
21 | Cc1cn2c(=O)[nH]nc2nc1N1CCC(Oc2ccccc2)CC1 [Example 15, 6-Methyl-7-(4-phenoxypiperidine-1-yl)-[1.2.4]triazolo[4,3-a]pyrimidin-3(2H)-one] | 55 nM
22 | Cc1cn2c(=O)[nH]nc2nc1N1CCC(Oc2cccc(C#N)c2)CC1 [Example 16, 3-((1-(6-methyl-3-oxo-2,3-dihydro-[1,2,4]triazolo[4,3-a]pyrimidin-7-yl)piperidin-4-yl)oxy)benzonitrile] | 35 nM
23 | Cc1cn2c(=O)n(C)nc2nc1N1CCC(Oc2cccc(C#N)c2)CC1 [Example 17, 3-((1-(2,6-dimethyl-3-oxo-2,3-dihydro-[1,2,4]triazolo[4,3-a]pyrimidin-7-yl)piperidin-4-yl)oxy)benzonitrile] | 36 nM
24 | Cc1cn2c(=O)[nH]nc2nc1N1CCC(Oc2ccc3c(cnn3C)c2)CC1 [Example 18] | 338 nM
25 | Cc1cn2c(=O)n(C)nc2nc1N1CCC(Oc2ccccc2)CC1 [Example 19, 2,6-dimethyl-7-(4-phenoxypiperidin-1-yl)-[1,2,4]triazolo[4,3-a]pyrimidin-3(2H)-one] | 54 nM
26 | COc1ccc(OC2CCN(c3nc4c(cc3C)COC4=O)CC2)cn1 [Example 20, 2-(4-((6-Methoxypyridin-3-yl)oxy)piperidin-1-yl)-3-methylfuro[3,4-b]pyridin-7(5H)-one] | 151 nM
27 | COc1ccc(OC2CCN(c3nc4c(cc3C)C(=O)OC4)CC2)cn1 [Example 21, 2-(4-((6-Methoxypyridin-3-yl)oxy)piperidin-1-yl)-3-methylfuro[3,4-b]pyridin-5(7H)-one] | 22 nM
28 | Cc1cc2c(=O)[nH][nH]c2nc1N1CCC(Oc2cccc(C#N)c2)CC1 [Example 22, 3-((1-(5-methyl-3-oxo 2,3-dihydro-1H-pyrazolo[3,4-b]pyridin-6-yl)piperidin-4-yl)oxy)benzonitrile] | 57 nM
29 | COc1ccc(OC2CCN(c3nc4[nH][nH]c(=O)c4cc3C)CC2)cn1 [Example 23, 6-(4-((6-methoxypyridin-3-yl)oxy)piperidin-1-yl)-5-methyl-1,2-dihydro-3H-pyrazolo[3,4-b]pyridin-3-one] | 68 nM
30 | Cc1cc2c(=O)[nH][nH]c2nc1N1CCC(Oc2ccc3cn[nH]c3c2)CC1 [Example 24, 6-(4-((1H-indazol-6-yl)oxy)piperidin-1-yl)-5-methyl-1,2-dihydro-3H-pyrazolo[3,4-b]pyridin-3-one] | 39 nM
31 | COc1ccc(OC2CCN(c3nc4c(cc3C)c(=O)[nH]n4C)CC2)cn1 [Example 25, 6-(4-((6-methoxypyridin-3-yl)oxy)piperidin-1-yl)-1,5-dimethyl-1,2-dihydro-3H-pyrazolo[3,4-b]pyridin-3-one] | 249 nM
32 | Cc1cc2c(=O)[nH]n(C)c2nc1N1CCC(Oc2cccc(C#N)c2)CC1 [Example 26, 3-((1-(1,5-dimethyl-3-oxo-2,3-dihydro-1H-pyrazolo[3,4-b]pyridin-6-yl)piperidin-4-yl)oxy)benzonitrile] | 208 nM
